In patent US20170224823A1, “PLATINUM-CATALYZED SILICONE DRUG DELIVERY DEVICES AND METHODS OF USE THEREOF” (priority 2014, published 2017):
Values joined by “and” are separate entries in the source; they are usually repeats but may differ in a detail not shown here. Equal entries are not always repeated. Values belong to the compound of their own block, whether it stands above or below them.

Legend:
[1] = Raman microscopy to assess drug binding to poly(methylhydrosiloxane); format: physicochemical; settings: Raman microscopy (FIG. 12)
Source text: FIG. 12 depicts Raman microscopy studies to assess drug binding to poly(methylhydrosiloxane). LNG: levonorgestrel, DAP: dapivirine, PRG: progesterone, EE: Ethynyl estradiol.
To determine the binding site of compounds to the silicone polymer, Raman spectroscopy studies were undertaken. In the first study, scanning Raman microscopy was used as a method for mapping drug distribution in silicone elastomer films. Thin films were created using NuSil DDU-4320 silicone elastomer and either dapivirine, micronized levonorgestrel, or non-micronized levonorgestrel. 400 points were sampled. In the second study, Raman microscopy was used as a tool to assess binding to poly(methylhydrosiloxane).

[2] = In vitro release from platinum-catalyzed silicone matrix rings (200 mg dapivirine, 32 mg levonorgestrel), storage stability study; format: physicochemical; settings: for Release at week-two time point: rings with micronized levonorgestrel and micronized dapivirine, stored two weeks
Method: Platinum-catalyzed silicone matrix intravaginal rings comprising 200 mg micronized dapivirine and 32 mg levonorgestrel (both micronized and non-micronized) were utilized in this study. FIGS. 1 and 2 depict the mean and cumulative daily release of dapivirine and levonorgestrel versus time for micronized levonorgestrel and micronized dapivirine on storage stability. […] For the non-micronized levonorgestrel rings, there was less than 100% recovery of the amount of levonorgestrel added in two of the rings tested for content after initial release rate testing. […] All of the levonorgestrel release rate results obtained in this study are likely to have been influenced by this phenomenon.

[3] = Recovery from NuSil DDU-4320 platinum-catalyzed silicone slabs or rings; format: physicochemical; settings: DDU-4320 slab
Method: (§1) Methods for assaying the percent of compound having a terminal alkene, alkyne or carbonyl group recoverable from or covalently bound to a platinum-catalyzed silicone intravaginal drug delivery device of the invention are commonly known in the art. For example, silicone intravaginal rings, slabs or IUDs can be added to a glass flask. 5 mL of a 2.5 mg/mL norethindrone solution (NOR; present as an internal standard) in methanol can be added to the flask along with 95 mL of dichlormethane (DCM). The flask can be placed in a rotating orbital incubator set at 37° C. and 60 rpm for 72 hours. A 2 mL aliquot of the cooled extraction mixture can be transferred to a glass centrifuge tube and allowed to evaporate to dryness. The dried samples can be reconstituted in 10 mL of methanol with vortex mixing for 30 seconds and sonication for 40 minutes. A 1:10 dilution of this solution can be prepared using methanol and water such that the final solvent composition is 1:1. This solution and be analyzed by HPLC. Recovery can be expressed as a percentage of predicted compound as compared to the original amount of compound present in the silicone intravaginal ring, slab or IUD. The final data can be corrected based on the recovery of a control solution of known compound concentration that was “extracted” at the same time.
The influence of silicone polymer system cure time, and cure temperature on levonorgestrel was also investigated. With the understanding that the NuSil DDU-4320 could be cured at a lower temperature than NuSil MED-4870, process optimization proceeded with NuSil DDU-4320.
For example, at a cure temperature and time of 100° C. for 7 minutes, approximately 87% of the LNG added was recovered using non-micronized LNG, compared with only 12% for micronized LNG. LNG recovery decreased with increasing cure temperature and cure time for both the micronized and non-micronized LNG. For example, the recovery of micronized LNG falls from 35% to zero as the cure time at 100° C. is increased from 1.5 minutes to 30 minutes. Similarly, the recovery of non-micronized LNG falls from approximately 87% to 59% as the cure temperature is increased from 60° C. to 160° C. at a cure time of 7 minutes.
In an effort to define the maximum possible recovery of contraceptive using the best possible conditions for manufacture, further silicone slabs were prepared with non-micronized LNG. In this case, a low temperature manufacture at 60° C. with a cure time of 6 minutes was compared to a shorter higher temperature cure of 100° C. for 1.5 minutes. In addition, to define precisely the recovery of LNG expected from a ring compared to a slab, intravaginal rings were also prepared under the above conditions. […]

[4] = Recovery from NuSil MED-4870 platinum-catalyzed silicone slabs; format: physicochemical; settings: for % LNG Recoverable: MED-4870 slab
Method: as §1
Higher cure temperatures were required for the NuSil MED-4870 system to ensure sufficient curing to allow for slab removal from the molds. […]

[5] = In vitro release from addition-cured (Pt) LSR9-9508-30 matrix vaginal rings; format: physicochemical; settings: for Total release, % of initial drug loading / Time after which release ceased: LSR9-9508-30 matrix rings, 21-day study; for Total release, % of initial drug loading: non-micronized LNG, micronized EE, micronized ET; for Release mechanism: LSR9-9508-30 rings, duration of the 21-day study
Source text: (§2) Formulations of dapivirine (DAP or DPV) with a contraceptive hormone were investigated for use with a multipurpose prevention technology (MPT) intravaginal ring system. Dapivirine and non-micronized levonorgestrel (LNG), micronized ethinyl estradiol (EE), or micronized etonogestrel (ET) were studied in condensation cured (Sn) or addition cured (Pt) silicone systems. Matrix-type vaginal rings were manufactured by injection moulding, using either MEDS-6382 (condensation-cured) or LSR9-9508-30 (addition-cured) silicone elastomers. Release of DAP and LNG from the LSR9-9508-30 rings was diffusion-controlled for the duration of the 21-day study. Total DAP release was 41% of the initial loading, while only 29% LNG loading was released. Both drugs would have continued to be released beyond 21 days had the study had continued. However, release of EE and ET ceased after 13 and 8 days respectively, with only 36 and 23% of initial drug loading released.

[6] = In vitro release from condensation-cured (Sn) MEDS-6382 matrix vaginal rings; format: physicochemical
Source text: as §2

[7] = system: HIV-1 strains harboring different resistance-inducing mutations; settings: cited from earlier work
[8] = system: wild-type HIV-1 strains; settings: cited from earlier work
[9] = Solubility in water; format: physicochemical

Covalent binding to the silicone polymer [1]: covalently bind | Release from platinum catalyzed silicone rings, non-micronized compared to micronized ([2]; non-micronized levonorgestrel): increased release | Release of levonorgestrel detected initially (T0) ([2]; rings with micronized levonorgestrel): negligible release | Release at week-two time point [2]: lack of levonorgestrel release | % LNG Recoverable ([3]; micronized, 60° C., 7 min): 75% | % LNG Recoverable ([3]; micronized, 80° C., 7 min): 50% | % LNG Recoverable ([3]; micronized, 100° C., 1.5 min): 35% and 37% | % LNG Recoverable ([3]; micronized, 100° C., 3 min): 25% | % LNG Recoverable ([3]; micronized, 100° C., 7 min): 10% and 18% | % LNG Recoverable ([3]; micronized, 100° C., 15 min): 2% | % LNG Recoverable ([3]; micronized, 100° C., 120 min): 0% | % LNG Recoverable ([3]; micronized, 120° C., 7 min): 0% | % LNG Recoverable ([3]; micronized, 140° C., 7 min): 0% | % LNG Recoverable ([3]; micronized, 160° C., 7 min): 0% | % LNG Recoverable ([3]; non-micronized, 80° C., 7 min): 83% | % LNG Recoverable ([3]; non-micronized, 100° C., 3 min): 82% | % LNG Recoverable ([3]; non-micronized, 100° C., 15 min): 85% | % LNG Recoverable ([3]; non-micronized, 100° C., 30 min): 80% | % LNG Recoverable ([3]; non-micronized, 100° C., 120 min): 75% | % LNG Recoverable ([3]; non-micronized, 120° C., 7 min): 83% | % LNG Recoverable ([3]; non-micronized, 140° C., 7 min): 82% and 80% | % LNG Recoverable ([3]; non-micronized, 160° C., 7 min): 58% | % LNG Recoverable ([3]; non-micronized, 160° C., 7 min, listed as levonorgestrel): 59% | Levonorgestrel content of slab ([4]; NuSil MED-4870 slab heated at 160° C. for 5 minutes): 47% | % LNG Recoverable ([4]; micronized, 120° C., 10 min): 0% | % LNG Recoverable ([4]; micronized, 140° C., 10 min): 0% | % LNG Recoverable ([4]; micronized, 160° C., 1.5 min): 0% | % LNG Recoverable ([4]; micronized, 160° C., 7 min): 0% | % LNG Recoverable ([4]; micronized, 160° C., 10 min): 0% | % LNG Recoverable ([4]; micronized, 160° C., 15 min): 0% | % LNG Recoverable ([4]; micronized, 160° C., 20 min): 0% | % LNG Recoverable ([4]; micronized, 160° C., 30 min): 0% | % LNG Recoverable ([4]; micronized, 160° C., 120 min): 0% | % LNG Recoverable ([4]; micronized, 180° C., 10 min): 0% | % LNG Recoverable ([4]; micronized, 200° C., 10 min): 0% | % LNG Recoverable ([4]; non-micronized, 120° C., 10 min): 65% | % LNG Recoverable ([4]; non-micronized, 140° C., 10 min): 55% | % LNG Recoverable ([4]; non-micronized, 160° C., 1.5 min): 65% | % LNG Recoverable ([4]; non-micronized, 160° C., 7 min): 47% | % LNG Recoverable ([4]; non-micronized, 160° C., 10 min): 60% | % LNG Recoverable ([4]; non-micronized, 160° C., 15 min): 33% | % LNG Recoverable ([4]; non-micronized, 160° C., 20 min): 28% | % LNG Recoverable ([4]; non-micronized, 160° C., 30 min): 10% | % LNG Recoverable ([4]; non-micronized, 160° C., 120 min): 0% | % LNG Recoverable ([4]; non-micronized, 180° C., 10 min): 8% | % LNG Recoverable ([4]; non-micronized, 200° C., 10 min): 0% | Total release, % of initial drug loading [5]: 29% | Release mechanism [5]: diffusion-controlled
Structure (SMILES): C#C[C@]1(O)CC[C@H]2[C@@H]3CCC4=CC(=O)CC[C@@H]4[C@H]3CC[C@@]21CC [LNG, 13-ethyl-17-ethynyl-17-hydroxy-1,2,6,7,8,9,10,11,12,13,14,15,16,17-tetrad-ecahydrocyclopenta[a]phenanthren-3-one]

Covalent binding to the silicone polymer [1]: covalently bind | Total release, MEDS-6382 compared with LSR9-9508-30 [6]: greater from MEDS-6382 than LSR9-9508-30 | Time after which release ceased [5]: 13 days | Total release, % of initial drug loading [5]: 36%
Structure (SMILES): C#C[C@]1(O)CC[C@H]2[C@@H]3CCc4cc(O)ccc4[C@H]3CC[C@@]21C [EE, Ethynyl Estradiol]

Structure (SMILES): Cc1cc(C)c(Nc2ccnc(Nc3ccc(C#N)cc3)n2)c(C)c1 [DAP, 4-[[4-[(2,4,6-trimethylphenyl)amino]-2-pyrimidinyl]amino]benzonitrile]
Covalent binding to the silicone polymer [1]: do not covalently bind | Release at week-two time point [2]: reasonable dapivirine release | Activity against HIV-1 strains harboring resistance-inducing mutations [7]: potent activity | Activity against wild-type HIV-1 strains [8]: potent activity | Total release, % of initial drug loading [5]: 41% | Release mechanism [5]: diffusion-controlled | Solubility in water [9]: virtually insoluble in water | solubility ([9]; water): < 1 µg/mL

Covalent binding to the silicone polymer [1]: covalently bind
Structure (SMILES): CC(=O)[C@H]1CC[C@H]2[C@@H]3CCC4=CC(=O)CC[C@]4(C)[C@H]3CC[C@]12C [PRG, Progesterone]

Total release, MEDS-6382 compared with LSR9-9508-30 [6]: greater from MEDS-6382 than LSR9-9508-30 | Time after which release ceased [5]: 8 days | Total release, % of initial drug loading [5]: 23%
Structure (SMILES): C#C[C@]1(O)CC[C@H]2[C@@H]3CCC4=CC(=O)CC[C@@H]4[C@H]3C(=C)C[C@@]21CC [ET, etonogestrel]
